# Data taken from patent US20240207455A1, “COMBINATION COMPRISING A NEUROTENSIN RECEPTOR BINDING COMPOUND AND NAPOX” (Fusion Pharmaceuticals Inc., priority 2021, published 2024).
# Tested on: subcutaneous AsPC1 tumors
# Assay: Efficacy study in mice bearing subcutaneous AsPC1 tumors (tumor volume)
# Format: in vivo, SWISS Nude mice
# Details: ^177Lu-IPN01087 20 MBq/mouse IV weekly x3; NAPOX: oxaliplatin 3.75 mg/kg, liposomal irinotecan 16 mg/kg, folinic acid 75 mg/kg, 5-FU 37.5 mg/kg weekly x2; Groups 2, 3, 5 vs vehicles
# Protocol: The AsPC1 cell line was isolated from a metastatic site (ascites) from a patient (Chen WH. et al., In Vitro. 1982 January; 18(1):24-34).
# Tumor cells were grown as monolayer at 37° C. in a humidified atmosphere (5% CO2, 95% air). The culture medium is RPMI 1640 containing glutamax supplemented with 10% heat inactivated fetal bovine serum, sodium pyruvate and hepes. For experimental use, tumor cells were detached from the culture flask using accutase and neutralized by addition of complete culture medium. The cells were counted and their viability was assessed by 0.25% trypan blue exclusion assay. Two frozen pellets of AsPC-1 tumor cells were prepared: one frozen cell pellet prepared during the in-vitro cell culture, and one frozen cell pellet prepared using the cell suspension used for tumor induction in mice.
# One hundred fifty (150) healthy female SWISS Nude mice (Crl:NU(Ico)-Foxn1 nu), 6-7 weeks old at reception, were obtained from Charles River.
# Tumors were induced by subcutaneous injection of ten million (10^7) AsPC-1 cells in 200 μL of RPMI 1640 medium containing matrigel (50:50, v:v, ref: 356237, BD Biosciences, France) into the right flank (in the axis of the heart) of 150 female animals. […]
# The treatment efficacy was assessed in terms of the effects of the treatments on the tumor volumes of treated animals relative to control animals. […]
substance,measurement,value
^177Lu-zalsenertant tetraxetan [^177Lu-IPN01087],"AsPC-1 tumor growth (tumor volume), FIG. 2",produced an antitumor effect when compared to the vehicles
